US20130184202A1, “Peptide Inhibitors and Methods of Use Thereof” (priority 2011, published 2013)

Key:
RAW cells = experiment: iNOS and IL-1β mRNA expression by RT-PCR after BAL treatment; assay type: cell-based; conditions: RAW cells treated with SNO-OE-BAL in the presence of the NF-κB inhibitor
Procedure: RAW cells were treated with BAL prepared from overexpressing mice, either with or without prior transnitrosation with L-SNOC.
RAW cells were treated with OE-BAL or SNO-OE-BAL in the presence and absence of the NF-κB inhibitor caffeic acid phenethyl ester (CAPE).

SP-D multimer = molecular target: T1, SP-D multimer (Rattus norvegicus, UniProt P35248); experiment: SP-D multimer disruption, native gel electrophoresis and Western blot; assay type: biochemical; conditions: for disruption of the SP-D multimer: RrSP-D, 25 mM, 37° C., 20 minutes, native gel
T1 sequence (P35248 20-374): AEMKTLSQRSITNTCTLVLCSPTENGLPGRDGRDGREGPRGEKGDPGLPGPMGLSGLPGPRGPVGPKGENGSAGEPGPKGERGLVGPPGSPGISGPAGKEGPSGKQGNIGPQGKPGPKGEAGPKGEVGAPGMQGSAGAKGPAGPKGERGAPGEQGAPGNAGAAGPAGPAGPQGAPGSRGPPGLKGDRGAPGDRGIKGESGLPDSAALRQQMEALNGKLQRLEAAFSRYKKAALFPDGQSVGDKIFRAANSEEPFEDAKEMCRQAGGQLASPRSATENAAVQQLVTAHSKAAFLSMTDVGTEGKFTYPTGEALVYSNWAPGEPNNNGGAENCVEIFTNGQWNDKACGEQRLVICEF

RrSP-D = molecular target: T2, RrSP-D (Rattus norvegicus, UniProt P35248); experiment: SP-D trimer/structure disruption, SDS-PAGE and Western blot; assay type: biochemical; conditions: for disruption of SP-D structure (specificity): 50 ng RrSP-D, equimolar concentration, non-reducing denaturing SDS-PAGE
T2 sequence (P35248 20-374): T1 sequence (P35248 20-374)
Procedure: FIG. 12A provides a hydrophobicity plot of the designed peptide CJ-1 (SEQ ID NO: 1). CJ-1 was directly derived from SP-D sequence within which cysteine residues are located in the hydrophobic pocket. RrSP-D (50 ng) was incubated with or without CJ-1 (10 mM) or DTT (10 mM) at 37° C. for 20 minutes (FIG. 12B). […] RrSP-D (50 ng) was incubated with different doses of CJ-1 (0.01-10 mM) at 37° C. for 20 minutes.
By matching the reduced cysteines within the peptide to those in the target protein one can specifically disrupt structure. Using 50 ng of RrSP-D the effect of an equimolar concentration of CJ-1, targeted peptide; CJ-2, a scrambled version of CJ-1 with no hydrophobic pocket; or L-cysteine was analyzed. Following incubation SP-D structure was assessed by non-reducing denaturing SDS-PAGE.

HIV X4 strain NL4-3 = experiment: HIV reverse transcriptase (RT) assay in supernatants of infected Jurkat T cells; assay type: cell-based; conditions: NL4-3 preincubated 1 hour at 37° C.; Jurkat T cells infected 16 hours; supernatants day 6 postinfection
Procedure: The HIV X4 strain NL4-3 was preincubated without (control) or with peptide CJ-2 which was a peptide with two cysteines in the hydrophilic domain, peptide CJ-3 which was derived from gp120, or peptide CJ-4 which was derived from gp41 for 1 hour at 37° C. at the concentrations indicated. The Jurkat T cells (0.5×10^6 cell/ml) were infected by NL4-3 (30 ng/ml) for 16 hours and washed. The supernatants at day 6 postinfection was collected and subjected to HIV reverse transcriptase (RT) assay. The data are shown represent the mean±SD of duplicate cultures (FIG. 15D).

HIV gp120 LAV = HIV gp120 LAV (Human immunodeficiency virus type 1 group M subtype B, UniProt P03377); conditions: preincubated, denatured, SDS PAGE, Coomassie blue
Procedure: Peptides were designed to disrupt HIV gp120 formation. […] HIV gp120 LAV preincubated without (lane 1) or with DTT (lane 2), L-cysteine (lane 3), CJ-3 (lane 4) CJ-4 (lane 5) or CJ-3 and CJ-4 (lane 6) was denatured and subjected to SDS PAGE gel electrophoresis. The resulted proteins were visualized by Coomassie blue staining (FIG. 15C).

RAW 264.7 cells [1] = experiment: Real-time qPCR of pro-inflammatory mediator mRNA (IL-1β, iNOS, ptgs2, CCL2); assay type: cell-based; conditions: 10 μM, 3 hours, without LPS
Procedure: Raw 264.7 cells were incubated with or without CJ-1 (10 μM) or SNO-CJ-1 (10 μM) for 3 hours (FIG. 17A) or incubated with or without CJ-1 (10 μM) or SNO-CJ-1 (10 μM) for 20 minutes and treated with LPS (1 ng/mL) for an additional 3 hours (FIG. 17B). The cells were lysed and total RNA was isolated and subjected to real-time qPCR for mRNA expression of IL-1β, iNOS, ptgs2 and CCL2. SNO-CJ-1 inhibits mRNA expression of pro-inflammatory mediators.

SNO-SP-D = molecular target: T3, SNO-SP-D (Rattus norvegicus, UniProt P35248); experiment: Biotin-Switch analysis of SNO-SP-D content; assay type: biochemical; conditions: NO-treated RrSP-D incubated with 1 μM or 10 μM
T3 sequence (P35248 20-374): T1 sequence (P35248 20-374)
Procedure: (§1) RrSP-D was incubated with 100 μM of nitric oxide for 30 minutes to generate SNO-SP-D (FIG. 14A). The resultant protein was incubated with CJ-1 (1 μM or 10 μM). The protein samples were subjected to Biotin-Switch analysis to determine SNO-SP-D content. Lane 1 untreated RrSP-D; Lane 2 NO-treated RrSP-D; Lane 3 NO-treated RrSP-D+1 μM CJ-1; Lane 4 NO-treated RrSP-D+10 μM CJ-1. […] The chemoattractive activity to RAW 264.7 cells was assayed using a Boydin Chamber.

RAW 264.7 cells [2] = experiment: Chemotactic activity, Boydin Chamber; assay type: cell-based; conditions: SNO-SP-D samples treated with 1 μM or 10 μM
Procedure: as §1

| Compound | disruption of the SP-D multimer (SP-D multimer) | disruption of SP-D structure (specificity) (RrSP-D) | inhibition of HIV (RT activity in supernatants) (HIV X4 strain NL4-3) | disruption of the structure of HIV gp120 LAV (HIV gp120 LAV) | further results |
| --- | --- | --- | --- | --- | --- |
| O=C(/C=C/c1ccc(O)c(O)c1)OCCc1ccccc1 [CAPE, caffeic acid phenethyl ester] |  |  |  |  | effect on SNO-OE-BAL mediated increase in iNOS expression (RAW cells): completely abrogated the increase in iNOS expression |
| N[C@@H](CS)C(=O)O [L-cysteine, reference compound] | capable of disrupting the SP-D multimer at high concentration | Only CJ-1 is capable of disrupting SP-D structure |  |  |  |
| VPVWKDAETTLFCASDAK [CJ-3] |  |  | inhibited HIV | disrupted the structure of HIV gp120 LAV |  |
| AEMKSLSQRSVPNTCTLVMCSPTE [CJ-1] |  | capable of disrupting SP-D structure |  |  | induction of transcription of inflammatory genes (RAW 264.7 cells [1]): capable of inducing transcription of inflammatory genes within macrophages; SNO-SP-D content (S-nitrosothiol) (SNO-SP-D): depleted S-nitrosothiol from SNO-SP-D; disruption of SP-D, dose dependence (RrSP-D; RrSP-D 50 ng, 0.01-10 mM, 37° C., 20 minutes): disrupts SP-D in a dose-dependent manner; disruption of SP-D trimers (RrSP-D; RrSP-D 50 ng, 10 mM, 37° C., 20 minutes, SDS PAGE, Western blot): disrupts SP-D trimers; SNO-SP-D induced RAW 264.7 cell migration (RAW 264.7 cells [2]): inhibits the ability of SNO-SP-D to induce RAW 264.7 cell migration |
| N[C@@H](CSN=O)C(=O)O [L-SNOC, L-S-nitroso-cysteine] | capable of disrupting the SP-D multimer at high concentration |  |  |  | disruption of native SP-D multimers (SP-D multimer; BAL from SP-D overexpressing mice or 0.2 μM recombinant SP-D treated with L-SNOC, native electrophoresis, Western blot): disruption of the native multimers to dodecamers and trimers |
| LVWEDLRNLCLFSYRLLR [CJ-4] |  |  | inhibited HIV | disrupted the structure of HIV gp120 LAV |  |
